Data reported in PMC8819633 (Journal of medicinal chemistry, 2021).

Legend:
[1] = system: total AKT (T-AKT) and phosphorylated AKT (P-AKT (S473)); test: Western blot of AKT degradation in BT474 cells; format: cell-based, human; conditions: for T-AKT and P-AKT protein degradation (western blot): 24 h, 1, 5 and 10 μM (12-13: 1, 3 and 10 μM); for hook effect in AKT degradation: higher concentrations (up to 10 μM); for time course of T-AKT and P-AKT degradation: indicated times; for extent of T-AKT degradation in concentration-response: indicated concentrations; for hook effect in concentration-response: concentrations up to 10 μM; for P-AKT (S473) protein level (western blot): GDC-0068 at 1 μM; for T-AKT protein level (western blot): controls at 1 μM
[2] = system: P-PRAS40 (T246) and P-S6 (S240/244); test: Western blot of downstream signaling inhibition in BT474 cells; format: cell-based, human; conditions: for inhibition of downstream signaling, P-PRAS40 and P-S6: compared with GDC-0068 (1 μM); for kinetics of downstream signaling inhibition: vs GDC-0068
MDA-MB-468 cells [3] = test: Cell proliferation assay; format: cell-based, human; conditions: 5 days
PC3 cells = test: Cell proliferation assay; format: cell-based, human; conditions: 5 days
T-AKT and P-AKT = test: Competition; format: cell-based, human; conditions: BT474, then degrader 22 h; for effect of GDC-0068 pretreatment on degrader-induced AKT degradation: 2 h pretreatment with GDC-0068 (1 μM); for effect of MG132 pretreatment on degrader-induced AKT degradation: 2 h pretreatment with MG132 (10 μM); for effect of MLN4924 pretreatment on degrader-induced AKT degradation: 2 h pretreatment with MLN4924 (1 μM)
T-AKT and P-AKT (S473) = test: Western blot of AKT degradation in PC3 cells; format: cell-based, human; conditions: for T-AKT and P-AKT degradation (western blot): PC3 cells, 1 μM, 24 h
MDA-MB-468 cells [4] = test: Apoptosis assay; format: cell-based, human; conditions: MDA-MB-468 cells (Figure S5)
[5] = 50 mg/kg; for time of Cmax: male Swiss albino mice, single IP injection
[6] = format: in vivo; conditions: mice, single IP injection, 50 mg/kg
[7] = system: P-PRAS40 (T246) and P-S6 (S240/244); test: Western blot of downstream signaling inhibition in PC3 cells; format: cell-based, human; conditions: 1 μM, 24 h, vs GSK690693

Cc1ncsc1-c1ccc(CNC(=O)[C@@H]2C[C@@H](O)CN2C(=O)[C@@H](NC(=O)CCCCCCCCCCNC(=O)CCNC[C@@H](C(=O)N2CCN(c3ncnc4c3[C@H](C)C[C@H]4O)CC2)c2ccc(Cl)cc2)C(C)(C)C)cc1 [Compound 11, (2S,4R)-1-((S)-2-(11-(3-(((S)-2-(4-Chlorophenyl)-3-(4-((5R,7R)-7-hydroxy-5-methyl-6,7-dihydro-5H-cyclopenta[d]pyrimidin-4-yl)-piperazin-1-yl)-3-oxopropyl)amino)propanamido)-undecanamido)-3,3-dimethylbutanoyl)-4-hydroxy-N-(4-(4-methyl-thiazol-5-yl)benzyl)pyrrolidine-2-carboxamide]
T-AKT and P-AKT protein degradation (western blot) [1]: near-complete degradation of T-AKT and P-AKT at 1 μM | hook effect in AKT degradation ([1]; 24 h): at 5 and 10 μM, a ″hook effect″ was observed | inhibition of downstream signaling, P-PRAS40 and P-S6 ([2]; 24 h): less effective than the parent inhibitor GDC-0068

Cc1ncsc1-c1ccc([C@H](C)NC(=O)[C@@H]2C[C@@H](O)CN2C(=O)[C@@H](NC(=O)CCCCCCCCCCNC(=O)CCNC[C@@H](C(=O)N2CCN(c3ncnc4c3[C@H](C)C[C@H]4O)CC2)c2ccc(Cl)cc2)C(C)(C)C)cc1 [Compound 12, (2S,4R)-1-((S)-2-(11-(3-(((S)-2-(4-Chlorophenyl)-3-(4-((5R,7R)-7-hydroxy-5-methyl-6,7-dihydro-5H-cyclopenta[d]pyrimidin-4-yl)-piperazin-1-yl)-3-oxopropyl)amino)propanamido)-undecanamido)-3,3-dimethylbutanoyl)-4-hydroxy-N-((S)-1-(4-(4-methylthiazol-5-yl)phenyl)ethyl)pyrrolidine-2-carboxamide]
T-AKT and P-AKT protein degradation (western blot) [1]: remarkable effects on degrading T-AKT and P-AKT | inhibition of downstream signaling, P-PRAS40 and P-S6 ([2]; 24 h): more profound inhibition of P-PRAS40 and P-S6 than 11

Cc1ncsc1-c1ccc([C@H](C)NC(=O)[C@@H]2C[C@@H](O)CN2C(=O)[C@@H](NC(=O)CCCCCCCCCCC(=O)NCCNC[C@@H](C(=O)N2CCN(c3ncnc4c3[C@H](C)C[C@H]4O)CC2)c2ccc(Cl)cc2)C(C)(C)C)cc1 [Compound 13, N^1-(2-(((S)-2-(4-Chlorophenyl)-3-(4-((5R,7R)-7-hydroxy-5-methyl-6,7-dihydro-5H-cyclopenta[d]pyrimidin-4-yl)piperazin-1-yl)-3-oxopropyl)amino)ethyl)-N^12-((S)-1-((2S,4R)-4-hydroxy-2-(((S)-1-(4-(4-methylthiazol-5-yl)phenyl)ethyl)carbamoyl)pyrrolidin-1-yl)-3,3-dimethyl-1-oxobutan-2-yl)dodecanediamide]
growth inhibition (MDA-MB-468 cells [3]): comparable potencies to GDC-0068 and INY-03–041 | growth inhibition (PC3 cells): comparable potencies to GDC-0068 and INY-03–041 | duration of T-AKT and P-AKT degradation ([1]; 1 μM): at least 24 h | time course of T-AKT and P-AKT degradation ([1]; 1 μM): Obvious degradation occurred at 4 h, and near-complete degradation was achieved at 8 h | T-AKT and P-AKT protein degradation (western blot) [1]: remarkable effects on degrading T-AKT and P-AKT | hook effect in AKT degradation ([1]; 24 h): less ″hook effect″ than 12 | extent of T-AKT degradation in concentration-response ([1]; 24 h): near-complete depletion of T-AKT at 1 μM | hook effect in concentration-response [1]: No ″hook effect″ was observed | effect of GDC-0068 pretreatment on degrader-induced AKT degradation (T-AKT and P-AKT): blocked the AKT degradation induced by 13 | effect of MG132 pretreatment on degrader-induced AKT degradation (T-AKT and P-AKT): completely prevented 13-mediated degradation of T-AKT and P-AKT and inhibition of P-PRAS40 | effect of MLN4924 pretreatment on degrader-induced AKT degradation (T-AKT and P-AKT): completely prevented 13-mediated degradation of T-AKT and P-AKT and inhibition of P-PRAS40 | AKT degradation, concentration-response (T-AKT and P-AKT (S473)): effectively induced AKT degradation in a concentration-dependent manner | kinetics of downstream signaling inhibition ([2]; 1 μM): not as rapid as that induced by GDC-0068 | inhibition of downstream signaling, P-PRAS40 and P-S6 ([2]; 24 h): more profound inhibition of P-PRAS40 and P-S6 than 11 | apoptosis induced (MDA-MB-468 cells [4]): ≤ 3% | time of Cmax [5]: 2 h | plasma concentrations over 8 h ([5]; mouse, in vivo, ip): above 3 μM | tolerability [6]: well tolerated

C[C@@H]1C[C@@H](O)c2ncnc(N3CCN(C(=O)[C@H](CNCCC(=O)NCCCCCCCCNc4cccc5c4C(=O)N(C4CCC(=O)NC4=O)C5=O)c4ccc(Cl)cc4)CC3)c21 (stereo partly shown) [Compound 25]
growth inhibition (MDA-MB-468 cells [3]): comparable potencies to GDC-0068 and INY-03–041 | growth inhibition (PC3 cells): comparable potencies to GDC-0068 and INY-03–041 | duration of T-AKT and P-AKT degradation ([1]; 1 μM): at least 24 h | T-AKT and P-AKT degradation ([1]; 1 μM, 24 h): > 95% | time course of T-AKT and P-AKT degradation ([1]; 1 μM): Significant P-AKT and T-AKT degradation occurred as early as 4 and 8 h, respectively | T-AKT and P-AKT protein degradation (western blot) [1]: highly effective in reducing T-AKT and P-AKT protein levels | hook effect in AKT degradation ([1]; 24 h): without a ″hook effect″ | extent of T-AKT degradation in concentration-response ([1]; 24 h): complete degradation of T-AKT at 300 nM | hook effect in concentration-response [1]: No ″hook effect″ was observed | effect of GDC-0068 pretreatment on degrader-induced AKT degradation (T-AKT and P-AKT): rescued 25-induced AKT degradation | effect of MG132 pretreatment on degrader-induced AKT degradation (T-AKT and P-AKT): rescued 25-induced AKT degradation | effect of MLN4924 pretreatment on degrader-induced AKT degradation (T-AKT and P-AKT): rescued 25-induced AKT degradation | AKT degradation, concentration-response (T-AKT and P-AKT (S473)): effectively induced AKT degradation in a concentration-dependent manner | kinetics of downstream signaling inhibition ([2]; 1 μM): not as rapid as that induced by GDC-0068 | inhibition of downstream signaling, P-PRAS40 and P-S6 ([2]; 24 h): most effective in inhibiting the downstream signaling | apoptosis induced (MDA-MB-468 cells [4]): ≤ 3% | time of Cmax [5]: 2 h | tolerability [6]: well tolerated

C[C@@H]1C[C@@H](O)c2ncnc(N3CCN(C(=O)[C@H](CNCCNC(=O)CCCCCCCCNc4cccc5c4C(=O)N(C4CCC(=O)NC4=O)C5=O)c4ccc(Cl)cc4)CC3)c21 (stereo partly drawn) [Compound 26, N-(2-(((S)-2-(4-chlorophenyl)-3-(4-((5R,7R)-7-hydroxy-5-methyl-6,7-dihydro-5H-cyclopenta[d]pyrimidin-4-yl)piperazin-1-yl)-3-oxopropyl)amino)ethyl)-9-((2-(2,6-dioxopiperidin-3-yl)-1,3-dioxoisoindolin-4-yl)amino)nonanamide]
P-AKT (S473) protein level (western blot) ([1]; 24 h): did not reduce the P-AKT level | T-AKT protein level (western blot) ([1]; 24 h): partially degraded T-AKT | inhibition of P-PRAS40 ([2]; 1 μM, 24 h): as effectively as GDC-0068

CCn1c(-c2nonc2N)nc2c(C#CC(C)(C)O)ncc(OCCCNCCCC(=O)NCCCCCCCCCCC(=O)N[C@H](C(=O)N3C[C@H](O)C[C@H]3C(=O)NCc3ccc(-c4scnc4C)cc3)C(C)(C)C)c21 [Compound 48, (2S,4R)-1-((S)-2-(11-(4-((3-((2-(4-Amino-1,2,5-oxadiazol-3-yl)-1-ethyl-4-(3-hydroxy-3-methylbut-1-yn-1-yl)-1H-imidazo[4,5-c]-pyridin-7-yl)oxy)propyl)amino)butanamido)undecanamido)-3,3-dimethylbutanoyl)-4-hydroxy-N-(4-(4-methylthiazol-5-yl)benzyl)-pyrrolidine-2-carboxamide]
T-AKT and P-AKT degradation (western blot) (T-AKT and P-AKT (S473)): the most effective in degrading T-AKT and P-AKT | inhibition of P-PRAS40 [7]: less effective than GSK690693 in inhibiting P-PRAS40

CCn1c(-c2nonc2N)nc2c(C#CC(C)(C)O)ncc(OCCCNCCCC(=O)NCCCCCCCCNc3cccc4c3C(=O)N(C3CCC(=O)NC3=O)C4=O)c21 (stereo not shown) [Compound 60, 4-((3-((2-(4-Amino-1,2,5-oxadiazol-3-yl)-1-ethyl-4-(3-hydroxy-3-methylbut-1-yn-1-yl)-1H-imidazo[4,5-c]pyridin-7-yl)oxy)propyl)-amino)-N-(8-((2-(2,6-dioxopiperidin-3-yl)-1,3-dioxoisoindolin-4-yl)-amino)octyl)butanamide]
T-AKT and P-AKT degradation (western blot) (T-AKT and P-AKT (S473)): the most effective in degrading T-AKT and P-AKT | inhibition of P-PRAS40 [7]: less effective than GSK690693 in inhibiting P-PRAS40

CC(C)NC[C@@H](C(=O)N1CCN(c2ncnc3c2[C@H](C)C[C@H]3O)CC1)c1ccc(Cl)cc1 [GDC-0068, reference compound]
time course of T-AKT and P-AKT degradation ([1]; 1 μM): no effect on the T-AKT protein level and increased the P-AKT protein level | P-AKT (S473) protein level (western blot) ([1]; 24 h): AKT hyperphosphorylation | T-AKT protein level (western blot) ([1]; 24 h): no detectable effect on the T-AKT protein level | inhibition of downstream signaling, P-PRAS40 and P-S6 ([2]; 24 h): effectively inhibited downstream signaling
